In patent US8524690B2, “DNA polymerase inhibitors composition and methods” (The Trustees of the University of Pennsylvania, priority 2007, dated 2013):

Key:
verruca vulgaris (warts) = test: Topical 3% cidofovir applied to the face for treatment of verruca vulgaris (warts); type: in vivo, human; settings: 3% topical ointment, once a day, one patient
Protocol: A 3% topical ointment of cidofovir was prepared by mixing 3 g of cidofovir in 97 g of petrolatum. A 3% topical preparation of cidofovir was applied to the beard area of a patient. The formulation was applied by the patient once a day to the affected areas of the face for the treatment of verruca vulgaris (warts). […] After 4-8 weeks the patient had alopecia in the areas of the face where the medication was applied. This was the only hair bearing area that the patient applied the medication to. The warts resolved in approximately 2-3 months.

hair of the beard area = test: Topical 3% cidofovir ointment applied once a day to beard area of a patient: alopecia and local tolerability; type: in vivo, human
Protocol: A 3% topical ointment of cidofovir was prepared by mixing 3 g of cidofovir in 97 g of petrolatum.
A 3% topical preparation of cidofovir was applied to the beard area of a patient. The formulation was applied by the patient once a day to the affected areas of the face for the treatment of verruca vulgaris (warts). […] After 4-8 weeks the patient had alopecia in the areas of the face where the medication was applied. This was the only hair bearing area that the patient applied the medication to. The warts resolved in approximately 2-3 months.
The hair cycle time of the face is the shortest on the body. At any one point in time, up to 80% of the hair on the face (i.e. the beard area) is in the active growth phase.

[1] = cited from earlier work

Structure (SMILES) | time until warts resolved (verruca vulgaris (warts)) | time until alopecia in the areas of the face where the medication was applied (hair of the beard area; 3% topical ointment in petrolatum, once a day, beard area, one patient) | local reaction to application (hair of the beard area; 3% topical ointment, once a day, face, application discontinued for several days then resumed) | hair regrowth upon discontinuation of topical cidofovir (hair of the beard area; after stopping 3% topical cidofovir, beard area) | oral bioavailability [1]
Nc1ccn(C[C@@H](CO)OCP(=O)(O)O)c(=O)n1 [cidofovir, (S)-1-[3-hydroxy-2-(phosphonylmethoxy)propyl]cytosine] | 2-3 months | 4-8 weeks | mild inflammation | the hair grew back | –
Nc1nc2c(ncn2COCCO)c(=O)[nH]1 [Acyclovir] | – | – | – | – | low oral bioavailability
